Patent US8076331B2, “Substituted pyridazine derivatives” (Cephalon, Inc., priority 2008, dated 2011)

Assays:
human H3 receptor = molecular target: T1, human H3 receptor (Homo sapiens, UniProt Q9Y5N1); test: Human H3 radioligand binding ([3H]-N-alpha-methylhistamine, CHO cell membranes); conditions: membranes of CHO cells stably expressing the human H3 receptor; [3H]-N-alpha-methylhistamine approx. 1 nM
T1 construct: expressed in transfected cells
Description: Methods: CHO cells stably expressing the human H3 receptor (GenBank: NM_007232) were harvested and cell pellets were frozen (—80° C.). Cell pellets were resuspended in 5 mM Tris-HCl, pH 7.5 with […] and a cocktail of protease inhibitors (Complete Protease Inhibitior Tablets, Roche Diagnostics). Cells were disrupted using a polytron cell homogenizer and the suspension was centrifuged at 1000×g for 10 minutes at 4° C. The pellet was discarded and the supernatant centrifuged at 40,000×g for 30 min at 4° C. This membrane pellet was washed in membrane buffer containing 50 mM Tris-HCl, pH 7.5 with 0.6 mM EDTA, 5 mM MgCl2 and protease inhibitors, recentrifuged as above and the final pellet resuspended in membrane buffer plus 250 mM sucrose and frozen at −80° C.
Radioligand Binding. Membranes were resuspended in 50 mM Tris HCl (pH 7.4), 5 mM MgCl2, 0.1% BSA. The membrane suspensions (10 μg protein per well) were incubated in a 96 well microtiter plate with [^3H]-N-alpha-methylhistamine (approximately 1 nM final concentration), test compounds at various concentrations (0.01 nM-30 μM) and scintillation proximity beads (Perkin Elmer, FlashBlueGPCR Scintillating Beads) in a final volume of 80 μl for 4 hours at room temperature, protected from light. Non-specific binding was determined in the presence of 10 μM clobenpropit. Radioligand bound to receptor, and therefore in proximity to the scintillation beads, was measured using a MicroBeta scintillation counter.

T1 sequence (Q9Y5N1 whole entry): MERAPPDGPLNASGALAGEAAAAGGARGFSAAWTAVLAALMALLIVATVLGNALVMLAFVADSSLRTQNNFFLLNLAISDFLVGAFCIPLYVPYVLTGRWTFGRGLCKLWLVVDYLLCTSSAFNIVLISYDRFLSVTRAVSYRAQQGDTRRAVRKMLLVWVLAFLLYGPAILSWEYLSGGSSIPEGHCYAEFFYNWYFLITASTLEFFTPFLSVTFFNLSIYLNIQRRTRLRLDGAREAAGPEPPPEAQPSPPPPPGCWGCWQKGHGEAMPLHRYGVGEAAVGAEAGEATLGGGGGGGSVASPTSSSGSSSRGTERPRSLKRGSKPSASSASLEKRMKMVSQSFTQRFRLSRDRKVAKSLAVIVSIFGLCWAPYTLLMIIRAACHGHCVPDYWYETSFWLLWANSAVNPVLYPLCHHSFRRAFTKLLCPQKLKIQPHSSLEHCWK

SMILES	Ki (human H3 receptor) [µM]	melting point [°C]
C[C@@H]1CCCN1CCCOc1ccc(-c2ccc(OCc3ccc(F)cc3)nn2)cc1 [Example 26, 3-(4-Fluoro-benzyloxy)-6-{4-[3-((R)-2methyl-pyrrolidin-1-yl)-propoxy]phenyl}pyridazine]	< 0.05	118
C[C@@H]1CCCN1CCCOc1ccc(-c2ccc(N)nn2)cc1 [Example 7, 6-{4-[3-((R)-2-Methyl-pyrrolidin-1-yl)-propoxy]-phenyl}pyridazin-3-ylamine]	< 0.05	121 to 122
CSc1ccc(-c2ccc(OCCCN3CCCCC3)cc2)nn1 [Example 31, 3-Methylsulfanyl-6-[4-(3-piperidin-1-yl-propoxy)phenyl]pyridazine]	0.051 to 0.1	122
C[C@@H]1CCCN1CCCOc1ccc(-c2ccc(-c3cc4ccccc4o3)nn2)cc1 [Example 41, 3-Benzofuran-2-yl-6-{4-[3-((R)-2-methyl-pyrrolidin-1-yl)-propoxy]-phenyl}pyridazine]	< 0.05	180
C[C@@H]1CCCN1CCCOc1ccc(-c2ccc(SCc3ccccc3)nn2)cc1 [Example 33, 3-Benzylsulfanyl-6-{4-[3-((R)-2-methyl-pyrrolidin-1-yl)-propoxy]phenyl}pyridazine]	< 0.05	104
CC(C)Oc1ccc(-c2ccc(OCCCN3CCC[C@H]3C)cc2)nn1 [Example 24]	< 0.05	75
[O-][S+](Cc1ccccc1)c1ccc(-c2ccc(OCCCN3CCCCC3)cc2)nn1 (stereo not shown) [Example 36, 3-Phenylmethanesulfinyl-6-[4-(3-piperidin-1-yl-propoxy)phenyl]pyridazine]	< 0.05	186
C[C@@H]1CCCN1CCCOc1ccc(-c2ccc(OCc3ccc(C(F)(F)F)cc3)nn2)cc1 [Example 27, 3-{4-[3-((R)-2-Methyl-pyrrolidin-1-yl)-propoxy]-phenyl}-6-(4-trifluoromethyl-benzyloxy)pyridazine]	< 0.05	160
C[C@@H]1CCCN1CCCOc1ccc(-c2nnc(SCc3ccccc3)c3c2CCC3)cc1 [Example 42, 1-Benzylsulfanyl-4-{4-[3-((R)-2-methyl-pyrrolidin-1-yl)propoxy]-phenyl}-6,7-dihydro-5H-cyclopenta[d]pyridazine]	< 0.05	122

Other lines, results leading:

Ki (human H3 receptor) [µM]	melting point [°C]	SMILES
< 0.05	114	C[C@@H]1CCCN1CCCOc1ccc(-c2ccc(OCc3ccccc3)nn2)cc1 [Example 21, 3-Benzyloxy-6-{4-[3-((R)-2-methyl-pyrrolidin-1-yl)-propoxy]phenyl}pyridazine]
< 0.05	134 to 136	C[C@@H]1CCCN1CCCOc1ccc(-c2ccc(Cl)nn2)cc1C#N [Example 13, 5-(6-Chloro-pyridazin-3-yl)-2-[3-((R)-2-methyl-pyrrolidin-1-yl)-propoxy]benzonitrile]
< 0.05	139	c1ccc(Oc2ccc(-c3ccc(OCCCN4CCCCC4)cc3)nn2)cc1 [Example 25, 3-Phenoxy-6-[4-(3-piperidin-1-yl-propoxy)phenyl]pyridazine]
< 0.05	108	C[C@@H]1CCCN1CCCOc1ccc(-c2ccc(-c3cccs3)nn2)cc1 [Example 16, 3-{4-[3-((R)-2-Methyl-pyrrolidin-1-yl)-propoxy]phenyl}-6-thiophen-2-yl-pyridazine]
< 0.05	138 to 141	C[C@@H]1CCCN1CCCOc1ccc(-c2ccc(N3CCC(O)CC3)nn2)cc1 [Example 9, 1-(6-{4-[3-((R)-2-Methylpyrrolidin-1-yl)-propoxy]phenyl}pyridazin-3-yl)piperidin-4-ol]
